# Test results as given in patent publication EP2739618B1, “QUINAZOLINE COMPOUNDS AS SERINE/THREONINE KINASE INHIBITORS” (Array Biopharma, Inc., priority 2011, dated 2013).
# Molecular target: T1, human ERK-2 (Mitogen Activated Kinase 1) (Homo sapiens, UniProt P28482)
# T1 construct: N-terminal 6-His fusion protein in E. coli and corresponding to aa 8-360; 6-His (N); made in house; host or cells: E. coli
# Experiment: ERK-2 Enzymatic Assay
# Format: biochemical
# Settings: TABLE I; 5nM ERK-2 enzyme, 25µM ATP, S/T17 peptide substrate; single assay or mean of multiple assays
# Method: Compounds were tested in an enzymatic assay using human ERK-2 (Mitogen Activated Kinase 1), recombinantly expressed as an N-terminal 6-His fusion protein in E. coli and corresponding to aa 8-360. The substrate used was the fluorescent Omnia peptide S/T17 (Invitrogen of Carlsbad, CA; Cat. KNZ1171C). Test compounds were diluted in DMSO in 3-fold serial dilutions at 100x final concentrations. […] The assay was run at ambient temperature in a white 384-well polypropylene plate (Nunc, Inc of Naperville, IL; Cat. 267462) collecting data every 50 seconds for approximately 30 minutes on an Envision plate reader (PerkinElmer, Inc. of Waltham, MA); Excitation 340 nm/Emission 495 nm. The data collected from each well was fit to a straight line and the resulting rates were used to calculate percent of control. Percent of control was plotted against compound concentration and IC50 values were determined using a four-parameter fit. Representative data is in TABLE I and TABLE II. The reported IC50 may be from a single assay or the mean of multiple assays.
# T1 sequence (P28482 8-360): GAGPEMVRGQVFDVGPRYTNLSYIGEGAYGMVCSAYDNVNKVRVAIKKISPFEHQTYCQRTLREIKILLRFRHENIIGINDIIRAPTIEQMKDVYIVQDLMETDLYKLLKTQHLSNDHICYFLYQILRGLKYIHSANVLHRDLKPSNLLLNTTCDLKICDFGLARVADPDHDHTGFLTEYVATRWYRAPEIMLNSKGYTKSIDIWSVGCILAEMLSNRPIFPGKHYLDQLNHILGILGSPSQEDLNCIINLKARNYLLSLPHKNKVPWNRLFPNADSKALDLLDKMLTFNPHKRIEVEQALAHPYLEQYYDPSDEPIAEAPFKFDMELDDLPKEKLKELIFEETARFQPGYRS
row,SMILES,IC50
1,"Cn1ccc([C@@H](NC(=O)c2ccc3cnc(NC4CCOCC4)nc3c2)c2ccc(Cl)c(F)c2)n1 [Compound I-20, 2-(tetrahydropyran-4-ylamino)-quinazoline-7-carboxylic acid [(S)-(4-chloro-3-fluoro-phenyl)-(1-methyl-1H-pyrazol-3-yl)-methyl]-amide]",2 nM
2,"COc1ccc([C@H](NC(=O)c2ccc3cnc(NC4CCOCC4)nc3c2)c2cnn(C)c2)cc1C#N [Compound I-56, 2-(Tetrahydro-pyran-4-ylamino)-quinazoline-7-carboxylic acid [(3-cyano-4-methoxy-phenyl)-(1-methyl-1H-pyrazol-4-yl)-methyl]-amide]",3.5 nM
3,"COc1ccc([C@@H](NC(=O)c2ccc3cnc(N[C@H](C)C4CC4)nc3c2)[C@@H]2CCCN2)cc1F (stereo in doubt) [Compound I-26, 2-((R)-1-cyclopropyl-ethylamino)-quinazoline-7-carboxylic acid [(S)-(3-fluoro-4-methoxy-phenyl)-(R)-pyrrolidin-2-yl-methyl]-amide]",2 nM
4,"COc1ccc(C(NC(=O)c2cc(F)c3cnc(NC4CCOCC4)nc3c2)c2cnn(C)n2)cc1F (stereo not drawn) [Compound I-53, 5-Fluoro-2-(tetrahydro-pyran-4-ylamino)-quinazoline-7-carboxylic acid [(3-fluoro-4-methoxy-phenyl)-(2-methyl-2H-[1,2,3]triazol-4-yl)-methyl]-amide]",6.8 nM
5,"O=C(N[C@@H](c1ccc(F)c(Cl)c1)[C@@H]1CCNC1)c1ccc2cnc(NC3CCOCC3)nc2c1 [Compound I-8, 2-(tetrahydropyran-4-ylamino)-quinazoline-7-carboxylic acid [(R)-(3-chloro-4-fluoro-phenyl)-(R)-pyrrolidin-3-yl-methyl]-amide]",6.7 nM
6,"O=C(N[C@H](c1ccc(F)c(Cl)c1)[C@@H]1CCNC1)c1ccc2cnc(NC3CCOCC3)nc2c1 (stereo in doubt) [Compound I-9, 2-(tetrahydropyran-4-ylamino)-quinazoline-7-carboxylic acid [(R)-(3-chloro-4-fluoro-phenyl)-(S)-pyrrolidin-3-yl-methyl]-amide]",6.7 nM
7,"COc1ccc([C@H](NC(=O)c2ccc3cnc(N[C@H]4CCO[C@H](COC(C)=O)C4)nc3c2)c2cnn(C)c2)cc1F [Compound I-57, Acetic acid (2S,4S)-4-(7-{[(S)-(3-fluoro-4-methoxy-phenyl)-(1-methyl-1H-pyrazol-4-yl)-methyl]-carbamoyl}-quinazolin-2-ylamino)-tetrahydro-pyran-2-ylmethyl ester]",24 nM
8,"COc1ccc([C@H](NC(=O)c2cc(F)c3cnc(NCCCF)nc3c2)c2cnn(C)c2)cc1F [Compound I-59, 5-Fluoro-2-(3-fluoro-propylamino)-quinazoline-7-carboxylic acid [(S)-(3-fluoro-4-methoxy-phenyl)-(1-methyl-1H-pyrazol-4-yl)-methyl]-amide]",15 nM
9,"CCn1ccc([C@H](NC(=O)c2ccc3cnc(NC4CCOCC4)nc3c2)c2ccc(Cl)c(F)c2)n1 [Compound I-18, 2-(tetrahydropyran-4-ylamino)-quinazoline-7-carboxylic acid [(R)-(4-chloro-3-fluoro-phenyl)-(1-ethyl-1H-pyrazol-3-yl)-methyl]-amide]",12.8 nM
10,"O=C(N[C@H](c1ccc(C(F)(F)F)c(F)c1)[C@@H]1CCCN1)c1ccc2cnc(NC3CCOCC3)nc2c1 (stereo in doubt) [Compound I-7, 2-(tetrahydropyran-4-ylamino)-quinazoline-7-carboxylic acid [(S)-(3-fluoro-4-trifluoromethyl-phenyl)-(R)-pyrrolidin-2-yl-methyl]-amide]",1.8 nM
11,"COc1ccc([C@@H](NC(=O)c2ccc3cnc(NC4CCOCC4)nc3c2)[C@@H]2CCCN2)cc1F (stereo in doubt) [Compound I-24, 2-(tetrahydropyran-4-ylamino)-quinazoline-7-carboxylic acid [(S)-(3-fluoro-4-methoxy-phenyl)-(R)-pyrrolidin-2-yl-methyl]-amide]",8.2 nM
12,"Cn1ccc([C@H](NC(=O)c2ccc3cnc(NC4CCOCC4)nc3c2)c2ccc(Cl)c(F)c2)n1 [Compound I-21, 2-(tetrahydropyran-4-ylamino)-quinazoline-7-carboxylic acid [(R)-(4-chloro-3-fluoro-phenyl)-(1-methyl-1H-pyrazol-3-yl)-methyl]-amide]",69 nM
13,"COc1ccc([C@H](NC(=O)c2cc(F)c3cnc(NC4CCOCC4)nc3c2)c2cnn(C)n2)cc1F [Compound I-51, (S)-5-Fluoro-N-((3-fluoro-4-methoxyphenyl)(2-methyl-2H-1,2,3-triazol-4-yl)methyl)-2-(tetrahydro-2H-pyran-4-ylamino)quinazoline-7-carboxamide]",2.8 nM
14,"COc1ccc([C@H](NC(=O)c2cc(F)c3cnc(NC4CCOCC4)nc3c2)c2cnn(C)c2)cc1F [Compound I-33, 5-fluoro-2-(tetrahydropyran-4-ylamino)-quinazoline-7-carboxylic acid [(S)-(3-fluoro-4-methoxy-phenyl)-(1-methyl-1H-pyrazol-4-yl)-methyl] -amide]",1.5 nM
15,"COc1ccc([C@@H](NC(=O)c2cc(F)c3cnc(NC4CCOCC4)nc3c2)[C@@H]2CCCN2)cc1F (stereo in doubt) [Compound I-25, 5-fluoro-2-(tetrahydropyran-4-ylamino)-quinazoline-7-carboxylic acid [(S)-(3-fluoro-4-methoxy-phenyl)-(R)-pyrrolidin-2-yl-methyl]-amide]",9 nM
16,O=C(N[C@H](c1ccc(F)c(Cl)c1)[C@]1(F)CCNC1)c1ccc2cnc(NC3CCOCC3)nc2c1 [Compound I-38],65.4 nM
17,"COc1ccc([C@H](NC(=O)c2cc(F)c3cnc(NC4CCOCC4)nc3c2)c2cnn(C)c2)cc1Cl [Compound I-66, 5-Fluoro-2-(tetrahydro-pyran-4-ylamino)-quinazoline-7-carboxylic acid [(S)-(3-chloro-4-methoxy-phenyl)-(1-methyl-1H-pyrazol-4-yl)-methyl]-amide]",0.6 nM
18,"O=C(N[C@H](c1ccc(F)c(Cl)c1)[C@H]1CCNC1)c1ccc2cnc(NC3CCOCC3)nc2c1 [Compound I-10, 2-(tetrahydropyran-4-ylamino)-quinazoline-7-carboxylic acid [(S)-(3-chloro-4-fluoro-phenyl)-(S)-pyrrolidin-3-yl-methyl]-amide]",5.4 nM
19,COc1ccc([C@H](NC(=O)c2cc(F)c3cnc(N[C@@H]4CCOC[C@@H]4F)nc3c2)c2cnn(C)c2)cc1F [Compound I-70],4 nM

# Same assay, conditions: TABLE II; 5nM ERK-2 enzyme, 25µM ATP, S/T17 peptide substrate; single assay or mean of multiple assays
row,SMILES,IC50
1,COc1ccc([C@H](NC(=O)c2cc(F)c3cnc(NC4CCOCC4)nc3c2)c2nccn2C)cc1F [II-52],1.9 nM
2,COc1ccc([C@@H](NC(=O)c2cc(F)c3cnc(NC4CCOCC4)nc3c2)c2cnn(C)c2)cc1F [II-4],15.7 nM
3,COCC(C)Nc1ncc2ccc(C(=O)N[C@@H](c3ccc(OC)c(F)c3)c3cnn(C)c3)cc2n1 (stereo partly drawn) [II-31],15 nM
4,COc1ccc([C@H](NC(=O)c2cc(F)c3cnc(NCCC#N)nc3c2)c2cnn(C)c2)cc1F [II-11],13.9 nM
5,COc1ccc([C@H](NC(=O)c2ccc3cnc(Nc4ccnn4C)nc3c2)c2cnn(C)c2)cc1F [II-16],2.1 nM
6,COc1ccc([C@H](NC(=O)c2ccc3cnc(NC4CC(OC)C4)nc3c2)c2cnn(C)c2)cc1F (stereo partly drawn) [II-10],13.8 nM
7,COc1ccc([C@H](NC(=O)c2cc(F)c3cnc(NC4CCOCC4)nc3c2)c2cnn(C)c2)cc1 [II-22],7 nM
8,COc1ccc([C@H](NC(=O)c2ccc3cnc(Nc4cn(C)nc4C)nc3c2)c2cnn(C)c2)cc1F [II-27],960 nM
9,Cn1nccc1Nc1ncc2ccc(C(=O)NC(c3ccc(Cl)c(F)c3)C3(F)CCNC3)cc2n1 (stereo not drawn) [II-42],34.6 nM
10,COc1ccc([C@H](NC(=O)c2cc(F)c3cnc(NC4CCOCC4)nc3c2)c2c[nH]c(C)n2)cc1F [II-51],164 nM
11,COc1ccc([C@H](NC(=O)c2cc(F)c3cnc(Nc4ccnn4C)nc3c2)c2cnn(C)c2)cc1F [II-23],10.8 nM
12,C[C@@H](CO)Nc1ncc2c(F)cc(C(=O)N[C@@H](c3cccc(F)c3)c3cnn(C)c3)cc2n1 [II-26],5.6 nM
13,COc1ccc([C@H](NC(=O)c2ccc3cnc(N[C@H]4CCOC[C@H]4F)nc3c2)c2ccnn2C)cc1F [II-36],3.8 nM
14,COc1ccc([C@H](NC(=O)c2ccc3cnc(NC4CCOCC4)nc3c2)c2ccnn2C)cc1F [II-28],3 nM
15,COc1ccc([C@H](NC(=O)c2cc(F)c3cnc(NC4CCOCC4)nc3c2)c2cnn(C)c2)nc1 [II-14],153 nM
16,COc1ccc([C@H](NC(=O)c2cc(F)c3cnc(N[C@@H](C)CO)nc3c2)c2cnn(C)c2)cc1F [II-21],2.3 nM
17,COc1ccc([C@H](NC(=O)c2ccc3cnc(N[C@H]4C[C@H](O)C4)nc3c2)c2cnn(C)c2)cc1F [II-9],3.8 nM
18,COc1ccc([C@H](NC(=O)c2cc(F)c3cnc(NC4CCOCC4)nc3c2)c2cn(C)cn2)cc1F [II-49],85.5 nM
19,COc1ccc([C@H](NC(=O)c2ccc3cnc(N[C@H]4C[C@H]5C[C@@H]4CO5)nc3c2)c2cnn(C)c2)cc1F [II-30],1000 nM
20,COc1ccc([C@H](NC(=O)c2ccc3cnc(N[C@H]4C[C@@H](O)C4)nc3c2)c2cnn(C)c2)cc1F [II-8],4.2 nM
